Experimental findings from US20090163528A1, “Pharmaceutical composition having analgesic effects” (priority 2004, published 2009) are described below.

Read-outs that look alike come from different tables or passages of the source.

Format in all cases: in vivo
Assay [1] deals with Kunming breed mice. The experiment in a line: Body twisting test, mixtures of fuziline, benzoylmesaconitine, mesaconitine and hypaconitine in different proportions (Test 4). Particulars: aspirin 200 mg/kg stomach perfusion. The procedure:
Enteric coated aspirin tablet, white, 25 mg/pill, supplied by Xuzhou Enhua Pharmaceuticals Co., Ltd, batch No.: 20050312; take 4 pills of enteric coated aspirin tablet; grind and add with distilled water up to 10 ml to compound 10 mg/ml of solution composed of aspirin;
Divide at random the 70 Kunming breed mice, weighing 18-22 g, into 7 groups with equal number of each gender and each group, with the first group as the negative control group and the second group as the positive control group; perfuse the stomach of the first group mice with 0.2 ml/10 g of 10% alcohol; perfuse the stomach of the second group mice with 200 mg/kg (20 times the practice dose) of aspirin; the 3rd, 4th, 5th, 6th and 7th group are groups in five different proportions of […], benzoylmesaconitine, mesaconitine and hypaconitine; perfuse the groups with solution in five different proportions of […], benzoylmesaconitine, mesaconitine and hypaconitine; […]; inject into the stomach cavity of the mice with 0.2 ml of 0.6% glacial acetic acid 30 minutes after administration; observe the number of body twisting of each mouse 5 to 10 minutes after the injection of acetic acid; make statistical analysis of the data to calculate the increasing rate of pain threshold and the standard deviation of each group; compare the intergroup differences between each drug group and the negative control group with t-test.

The test system of assay [2] is Kunming breed mice. Kind of assay: Body twisting test, mixtures of fuziline and benzoylmesaconitine in different proportions (Test 7). Particulars: aspirin 200 mg/kg stomach perfusion.
Assay [3] relates to Kunming breed mice. Kind of assay: Body twisting test, skin administration of fuziline (Test 9). The following applies: 200 mg/kg ig.; acetic acid 30 minutes after. The procedure:
Divide randomly the 40 Kunming breed mice, weighing 18-22 g, into 4 groups with equal number of each gender and each group. […] The first group is the negative control group. Smear an even layer of Vaseline plaster 0.1 g/piece onto the hair-disposed area of the of negative control group mice, covered lightly with a piece of gauze (1.5 cm×1.5 cm). The second group, as the positive control group is given stomach perfusion with 200 mg/kg of aspirin (20 times the practice use). […] Except that the mice of the second group are injected into the stomach cavity with 0.6% glacial acetic acid solution 30 minutes after the smearing, the mice of all other groups are injected into the stomach cavity with 0.6% glacial acetic acid solution 1.5 hours after the smearing; observe the number of body twisting of each mouse 5 to 10 minutes after the injection; make statistical analysis of the data to calculate the increasing rate of pain threshold and the standard deviation of each group; compare the intergroup differences between each drug group and the negative control group with t-test.

The test system of assay [4] is Kunming breed mice. The experiment in a line: Body twisting test, intramuscular injection of fuziline (Test 8). The following applies: 200 mg/kg ig.
The subject of assay [5] is Kunming breed mice. The following applies: aspirin 200 mg/kg stomach perfusion.
Assay [6] concerns Kunming breed mice. The experiment in a line: Body twisting test, mixtures of fuziline and hypaconitine in different proportions (Test 6). Particulars: aspirin 200 mg/kg stomach perfusion.
For assay [7], the system named is Kunming breed mice. The following applies: 200 mg/kg stomach perfusion.

`CC(=O)Oc1ccccc1C(=O)O` [Aspirin, aspirin]: the “Body twisting number ( x ± SD)” value with Kunming breed mice [1] was 3.3 ± 3.2; with Kunming breed mice [2] it was 3.1 ± 3.3; in the assay with Kunming breed mice [3] it was 5.1 ± 6.0; in the assay with Kunming breed mice [4], 5.1 ± 6.0; with Kunming breed mice [5], 3.0 ± 3.3; in the assay with Kunming breed mice [6], 3.1 ± 3.3. Also, the Pain suppression rate in the assay on Kunming breed mice [1] stood at 88.0%; in the assay on Kunming breed mice [2], 82.7%; in the assay with Kunming breed mice [3] it was 81.6%; with Kunming breed mice [4], 81.6%; in the assay on Kunming breed mice [5] it was 82.7%; with Kunming breed mice [6] it was 82.7%. The Pain suppression rate came out at 90.96% in the assay with Kunming breed mice [7] (Table 2) and 92.11% in the assay with Kunming breed mice [7] (Table 3). The “Body twisting number ( χ ± SD)” value in the assay on Kunming breed mice [7] (Table 2) was found to be 3.1 ± 3.3; with Kunming breed mice [7] (Table 3), 3.1 ± 3.2.
